These results are taken from ChEMBL document CHEMBL1201862, “PubChem BioAssay data set” (2004).

Some test systems named below: BT-549; DU-145; HCT-15; HL-60; HOP-92; HT-29; Malme-3M; NCI-H226; NCI-H23; OVCAR-5; OVCAR-8; PC-3; RXF 393; SF-268; SF-539; SK-MEL-5; SK-OV-3; TK-10; UACC-62; DMS-273.
Holding throughout (test): DTP human tumour cell line panel, 48 h

SMILES strings stand for the structures.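 How tested: cells in 96-well plates exposed to compound for 48 hours at five concentrations. Here, GI50 denotes the concentration required for 50% inhibition of growth.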 Active and inactive are the calls of the source. Rule as the data show it: active = GI50 up to about 1.1 µM and inactive = higher. Residues, ends and D or L forms follow the SMILES beside them. *: point of attachment. X38 = O=C(c1ccc(-c2ccc(Cl)cc2Cl)o1)*

For `Cc1cccc2c(N)c3cccc(C(=O)NCC[N+](C)(C)Cc4c([N+](=O)[O-])ncn4C)c3nc12`, the GI50 in the test with BT-549 is 46.1 µM (inactive); with DU-145, 46.8 µM (inactive); with HCT-15, 27 µM; in the test with HL-60, 5.92 µM (inactive); with HOP-92, 40.6 µM (inactive); in the test on HT-29 it was 12.7 µM (inactive). Also, the GI50 in the test with Malme-3M was > 43.6 µM (inactive); in the test on NCI-H226, 29.2 µM (inactive); in the test with NCI-H23, 17.5 µM (inactive); with OVCAR-5, 23.6 µM (inactive); with OVCAR-8 it was 26.3 µM (inactive); in the test with PC-3 it was 36.6 µM (inactive). The GI50 with RXF 393 was 48 µM (inactive); with SF-268 it was 28.2 µM (inactive); in the test with SF-539, 11.5 µM (inactive); in the test on SK-MEL-5, 26.1 µM (inactive); in the test with SK-OV-3 it was 31.6 µM (inactive); with TK-10 it was 56.2 µM (inactive). Also, the GI50 in the test with UACC-62 was 33.7 µM (inactive).

As for `Cc1ccnc2sc3ccccc3c(=O)c12`, the GI50 was 25.9 µM (inactive) with BT-549; 84.3 µM (inactive) in the test on DU-145; 52.2 µM in the test with HCT-15; 30 µM (inactive) in the test with HL-60; 54 µM (inactive) with HOP-92; 30.3 µM (inactive) in the test with HT-29. For the same compound, the GI50 with Malme-3M was 51.9 µM (inactive); in the test on NCI-H226, 36.1 µM (inactive); in the test on NCI-H23, 59 µM (inactive); in the test on OVCAR-5 it was 48.5 µM (inactive); in the test on OVCAR-8, 43.1 µM (inactive); in the test on PC-3, 35.6 µM (inactive). Further, the GI50 in the test on RXF 393 was 23.9 µM (inactive); with SF-268, 32.7 µM (inactive); with SF-539, 33.4 µM (inactive); in the test on SK-MEL-5 it was 24.7 µM (inactive); in the test with SK-OV-3, 37.3 µM (inactive); in the test with TK-10, 23.8 µM (inactive). The GI50 with UACC-62 is 17.6 µM (inactive).

Take `S=C1Cc2c(-c3ccc(Cl)cc3)cc(-c3ccccc3)nc2-c2ccccc2N1`: the GI50 with BT-549 is 16.6 µM (inactive); in the test on DU-145, 22 µM (inactive); in the test on HCT-15, 21.1 µM; with HL-60, 30.6 µM (inactive); with HOP-92, 8.04 µM (inactive); with HT-29, 5.47 µM (inactive). Also, the GI50 in the test with Malme-3M is 13.8 µM (inactive); with NCI-H226, 13.1 µM (inactive); in the test with NCI-H23 it was 11.6 µM (inactive); in the test with OVCAR-5, 24.5 µM (inactive); in the test on OVCAR-8, 2.86 µM (inactive); in the test on PC-3 it was 15.2 µM (inactive). For the same compound, the GI50 in the test on RXF 393 was 6.56 µM (inactive); with SF-268, 14.3 µM (inactive); with SF-539, 4.01 µM (inactive); in the test with SK-MEL-5 it was 16 µM (inactive); in the test on SK-OV-3, 10.6 µM (inactive); in the test on TK-10, 12.3 µM (inactive). The GI50 with UACC-62 was 14.6 µM (inactive).

For `CCOC(=O)Cn1nnc2cc(Nc3nc4ccccc4nc3C(=O)OCC)ccc21`, the GI50 in the test on BT-549 was > 100 µM (inactive); in the test with DU-145, > 100 µM (inactive); in the test on HCT-15, above 100 µM; in the test with HL-60 it was > 100 µM (inactive); in the test on HOP-92 it was 20.9 µM (inactive); with HT-29 it was > 100 µM (inactive). Further, the GI50 with Malme-3M was > 100 µM (inactive); in the test with NCI-H226 it was > 100 µM (inactive); in the test with NCI-H23, > 100 µM (inactive); with OVCAR-5 it was > 100 µM (inactive); in the test with OVCAR-8, 49.7 µM (inactive); in the test on PC-3 it was > 100 µM (inactive). Moreover, the GI50 in the test with RXF 393 was 18.6 µM (inactive); in the test with SF-268 it was 22.5 µM (inactive); in the test on SF-539, 17.3 µM (inactive); in the test with SK-MEL-5, > 100 µM (inactive); with SK-OV-3, 50.2 µM (inactive); in the test on TK-10 it was 22.5 µM (inactive). Besides, the GI50 with UACC-62 was > 100 µM (inactive).

Take `CC(=O)/C=C1\Nc2ccc([N+](=O)[O-])cc2N\C1=C/C(C)=O`: the GI50 in the test on BT-549 was 31.9 µM (inactive); with DU-145 it was 80.5 µM (inactive); in the test on HCT-15, 33.4 µM; in the test with HL-60, 56.6 µM (inactive); with HOP-92 it was 28.4 µM (inactive); in the test on HT-29, 54 µM (inactive). In addition, the GI50 was 25.7 µM (inactive) in the test with Malme-3M; 39.4 µM (inactive) in the test with NCI-H226; 25.1 µM (inactive) in the test on NCI-H23; > 100 µM (inactive) with OVCAR-5; 33.5 µM (inactive) in the test on OVCAR-8; 44.3 µM (inactive) in the test with PC-3. Further, the GI50 in the test with RXF 393 was 64.3 µM (inactive); in the test with SF-268, 47.8 µM (inactive); in the test with SF-539, 46.6 µM (inactive); in the test on SK-MEL-5, 24.7 µM (inactive); in the test with SK-OV-3, 90.8 µM (inactive); with TK-10 it was 65.5 µM (inactive). Further, the GI50 with UACC-62 is 26.7 µM (inactive).

For `Cc1nn(C(=O)CC(=O)Nc2ccc(Cl)cc2)c(C)c1/N=N/c1ccccc1C(=O)O`, the GI50 is > 100 µM (inactive) in the test on DMS-273; above 100 µM with HCT-15; > 100 µM (inactive) in the test on HL-60; > 100 µM (inactive) in the test with HT-29; > 100 µM (inactive) in the test with Malme-3M; > 100 µM (inactive) with NCI-H23. Further, the GI50 in the test on OVCAR-5, with OVCAR-8, with SF-268, in the test with SF-539, in the test with SK-MEL-5 and with SK-OV-3 was > 100 µM (inactive) in each case. In addition, the GI50 in the test on TK-10 and in the test with UACC-62 was > 100 µM (inactive) each time.

Turning to `CC(=O)n1c2ccccc2c2nc3nc(Oc4ccc(C)cc4)c4ccccc4c3cc21`, the GI50 in the test on DMS-273 is > 100 µM (inactive); with HCT-15 it was above 100 µM; with HT-29 it was > 100 µM (inactive); in the test on Malme-3M, > 100 µM (inactive); with NCI-H226, > 100 µM (inactive); in the test with NCI-H23, 21.8 µM (inactive). The GI50 with OVCAR-5 was > 100 µM (inactive); with OVCAR-8 it was > 100 µM (inactive); with SF-268, 92.3 µM (inactive); in the test with SF-539, > 100 µM (inactive); in the test with SK-MEL-5, > 100 µM (inactive); with SK-OV-3 it was > 100 µM (inactive). Besides, the GI50 in the test with UACC-62 is > 100 µM (inactive).

For the compound `COc1ccc2c(CCN)c(C(=O)O)[nH]c2c1`, the GI50 was > 100 µM (inactive) in the test on BT-549; > 100 µM (inactive) in the test on DU-145; above 100 µM with HCT-15; > 100 µM (inactive) with HL-60; > 100 µM (inactive) with HOP-92; > 100 µM (inactive) in the test on HT-29. For the same compound, the GI50 in the test with Malme-3M, in the test on NCI-H226, with NCI-H23, with OVCAR-5, in the test with OVCAR-8 and in the test on PC-3 was > 100 µM (inactive) each time. The GI50 with RXF 393, in the test with SF-268, in the test with SF-539, with SK-MEL-5, in the test on SK-OV-3 and in the test on TK-10 was > 100 µM (inactive) each time. Further, the GI50 with UACC-62 was > 100 µM (inactive).

`COC(=O)C(CC(C)C)NC(=O)C(Cc1ccccc1)NC(=O)C1CCCN1C(=O)C(CO)NC(=O)c1ccc(-c2ccc(Cl)cc2Cl)o1` (stereo not drawn) (X38-SPFL-OMe; configuration not given here): the GI50 is 25.6 µM (inactive) in the test with BT-549; 38 µM (inactive) with DU-145; 24 µM in the test with HCT-15; 19.5 µM (inactive) in the test with HL-60; 21.2 µM (inactive) in the test on HOP-92; 17.6 µM (inactive) with HT-29. Also, the GI50 is 42.1 µM (inactive) with Malme-3M; 19.1 µM (inactive) in the test on NCI-H226; 27.7 µM (inactive) in the test with NCI-H23; 21.9 µM (inactive) in the test on OVCAR-5; 36.4 µM (inactive) with OVCAR-8; 31.6 µM (inactive) in the test on PC-3. For the same compound, the GI50 is 17.8 µM (inactive) with RXF 393; 40.3 µM (inactive) in the test on SF-268; 24.3 µM (inactive) in the test with SF-539; 17.3 µM (inactive) with SK-MEL-5; 1.11 µM (active) in the test with SK-OV-3; 24.8 µM (inactive) in the test with TK-10. For the same compound, in the test on UACC-62, the GI50 was 23.8 µM (inactive).

For the compound `CC(=O)[C@H]1CC[C@H]2[C@@H]3CCC4=CC(=O)CC[C@]4(C)[C@H]3CC[C@]12C` [PROGESTERONE], the GI50 is 16 µM (inactive) with BT-549; 28.1 µM (inactive) in the test with DU-145; 18.9 µM in the test on HCT-15; 9.98 µM (inactive) in the test with HL-60; 25.7 µM (inactive) with HOP-92; 15 µM (inactive) with HT-29. Moreover, the GI50 is 17.3 µM (inactive) in the test with Malme-3M; 11.7 µM (inactive) with NCI-H226; 18.1 µM (inactive) in the test on NCI-H23; 19.5 µM (inactive) in the test with OVCAR-5; 18.4 µM (inactive) in the test on OVCAR-8; 14.4 µM (inactive) in the test on PC-3. In addition, the GI50 in the test on RXF 393 is 22.4 µM (inactive); with SF-268, 23.2 µM (inactive); with SF-539, 17.6 µM (inactive); with SK-MEL-5, 12.1 µM (inactive); in the test on SK-OV-3, 20.4 µM (inactive); in the test on TK-10, 23.9 µM (inactive). Moreover, the GI50 in the test with UACC-62 was 14.7 µM (inactive).

On to `O=C1NC(=O)[C@@]2(CC[C@@H](O)C2)c2ccncc21` [SESBANINE], for which the GI50 is > 100 µM (inactive) in the test on BT-549; > 100 µM (inactive) in the test with DU-145; above 100 µM with HCT-15; > 100 µM (inactive) in the test on HL-60; > 100 µM (inactive) in the test on HOP-92; > 100 µM (inactive) in the test with HT-29. Moreover, the GI50 in the test with Malme-3M, in the test on NCI-H226, with NCI-H23, with OVCAR-5, in the test with OVCAR-8 and in the test with PC-3 was > 100 µM (inactive) each time. Moreover, the GI50 in the test on RXF 393, with SF-268, in the test with SF-539, with SK-MEL-5, with SK-OV-3 and in the test with TK-10 was > 100 µM (inactive) in each case. Besides, in the test with UACC-62, the GI50 was > 100 µM (inactive).

The term GI50 denotes the concentration giving 50% growth inhibition.
